We go through 22 compounds from patent US10376502B2, “Alkylated imino sugars exhibiting glucosidase inhibition and their method of use” (Baruch S. Blumberg Institute, priority 2012, dated 2019).

One test concerns BVDV. As to the kind of experiment: BVDV single cycle virus yield reduction assay with plaque titration. The note with it: Bovine viral diarrhea virus isolates and strains; MDBK cells, MOI 0.5, 22 hours post infection; compound 0.16 μM to 100 μM. The test is classed as cell-based, BVDV (NADL strain). On the procedure: Cells and viruses: BVDV free MDBK cells (CCL 22) were obtained from the American Type Culture Collection and propagated in DMEMIF12 essential medium supplemented with penicillin (500 U/ml), streptomycin (500 U/ml), and 10% heat inactivated horse serum (Invitrogen). Cells were maintained in a humidified incubator at 37° C. with 5% C02. BVDV (NADL strain). For infections, virus inoculum was added in complete medium and adsorbed for 1 hour at 37‘C’, the inoculum was then removed, the cells washed once with medium and fresh medium containing compounds added. Virus stocks were prepared by freeze thawing the infected cells and culture supernatant three times followed by centrifugation at 1,000 g for 5 min., Stock titers were determined, and stocks were aliquoted and stored at −80° C. WNV was obtained from a eDNA clone of a human 2002 isolate from Texas; virus obtained from BHK cells electroporated with the in vitro synthesized RNA from this eDNA clone was passaged in Vero cells before use in antiviral assays. Dengue virus (DV) serotype 2 was a New Guinea C virus that had been passaged 28 times in suckling mouse brain, twice in Vero cells, and once in C6/36 mosquito cells.
BVDV antiviral and plaque assays: To evaluate antiviral activity against BVDV, a single cycle virus yield reduction assay was performed in the presence of from 0.16 μM to 100 μM through 5-fold dilution. Specifically, 2×10^5 MDBK cells/well were plated in 24 well plates. Twenty four hours later, the cells were infected with BVDV at multiplicity of infection (MOI) of 0.5 PFU/cell in 100 uL complete media. After adsorption for 1 hour at 37° C., the inoculum was removed, and cells were washed with media before media containing vehicle or from 0.16 μM to 100 μM through 5-fold dilution of test compound was added. At 22 hours post infection, both cells and media were collected and freeze-thawed three times before the virus was tittered. For BVDV virus, titer determination, 10^−2, 10^−3, 10^−4 dilutions of virus were inoculated onto MDBK cells as described previously. After absorption and washing the cells were overlaid with medium containing methylcellulose or soft agar and incubated at 37° C. for 3 days or until plaques were visible. Plaques were counted directly under the microscope or after staining with crystal violet in 70% methanol for 15 minutes.

The next test concerns their target viruses. The note with it: against their target viruses; cited from earlier work.

What is called EC50 is the concentration needed to bring the measured effect to its halfway point. A higher EC50 goes with a need for much substance. By EC90 is commonly meant the point of the concentration-response curve where the effect stands at 90%. Consider `CC(C)(C)C(=O)N(CCCCCCN1C[C@H](O)[C@@H](O)[C@H](O)[C@H]1CO)c1ccc(F)cc1F` [Entry 7], for which, in the test on BVDV, the EC50 worked out at 0.25 µM and it took 45 µM to reach the 90% level (EC90).
For `CC(C)(C)C(=O)N(CCCCCCN1C[C@H](O)[C@@H](O)[C@H](O)[C@H]1CO)C1CCCCCC1` [Entry 13] the same measures were 0.4 µM and 9 µM.
With `CC(C)(C)C(=O)Nc1ccc(CCCN2C[C@H](O)[C@@H](O)[C@H](O)[C@H]2CO)cc1` [Entry 16], in the test with BVDV, the concentration for a half-maximal effect (EC50) was more than 100 µM.
As to `CC(=O)N(CCCCCCN1C[C@H](O)[C@@H](O)[C@H](O)[C@H]1CO)c1ccc(F)cc1F` [Entry 5], in the test with BVDV, the concentration for a half-maximal effect (EC50) came out at 6 µM and it took 67 µM to reach the 90% level (EC90).
Consider `CC1CCCCC1N(CCCCCCN1C[C@H](O)[C@@H](O)[C@H](O)[C@H]1CO)C(=O)OC(C)(C)C` (some centres unmarked) [Entry 1], for which, in the test with BVDV, a half-maximal response (EC50) required 0.4 µM and the EC90 is 3.5 µM.
For the compound `CC(C)(C)C(=O)N(CCCCCCN1C[C@H](O)[C@@H](O)[C@H](O)[C@H]1CO)C1CCC1` [Entry 11], in the test with BVDV, the half-maximal effective concentration (EC50) amounted to 0.8 µM.
`CC(=O)N(CCCCCCN1C[C@H](O)[C@@H](O)[C@H](O)[C@H]1CO)c1cc(F)ccc1F` [Entry 4] had an EC50 in the test on BVDV of 5 µM.
With `CC(C)C(=O)N(CCCCCCN1C[C@H](O)[C@@H](O)[C@H](O)[C@H]1CO)C1CCCCC1` [Entry 8], in the test on BVDV, the EC50 stood at 0.45 µM and the EC90 amounted to 25 µM.
With `CC1CCCCC1NCCCCCCN1C[C@H](O)[C@@H](O)[C@H](O)[C@H]1CO` (some centres unmarked) [Entry 2], in the test on BVDV, the EC50 is 100 µM.
Consider `CCCCN1C[C@H](O)[C@@H](O)[C@H](O)[C@H]1CO` [NBDNJ, N-butyl-DNJ], for which, in the test with their target viruses, the “concentrations to achieve EC50 values in tissue culture” value is reported as “near millimolar”.
In the test on BVDV, `CC(C)(C)C(=O)N(CCCCCCN1C[C@H](O)[C@@H](O)[C@H](O)[C@H]1CO)c1cc(F)ccc1F` [Entry 6] yielded a concentration giving a half-maximal response (EC50) of 0.4 µM and an EC90 of 18 µM.
Turning to `CC(C)(C)C(=O)N(CCCCCCN1C[C@H](O)[C@@H](O)[C@H](O)[C@H]1CO)C1CC1` [Entry 10], the EC50 in the test with BVDV turned out to be 3.75 µM.
`CC(C)(C)C(=O)Nc1cccc(CCCN2C[C@H](O)[C@@H](O)[C@H](O)[C@H]2CO)c1` [Entry 15] had a half-maximal effective concentration (EC50) in the test on BVDV of 2.4 µM. This EC50 is about 1.6-fold lower than that of the compound before.
In the test with BVDV, `CC(C)(C)C(=O)N(CCCCCCN1C[C@H](O)[C@@H](O)[C@H](O)[C@H]1CO)C1CCCC1` [Entry 12] showed a 50% effective concentration (EC50) of 0.85 µM and a concentration for an effect of 90% (EC90) of 32 µM.
Take `O=C(c1ccccc1)N(CCCCCCN1C[C@H](O)[C@@H](O)[C@H](O)[C@H]1CO)C1CCCCC1` [Entry 20]: in the test on BVDV, the half-maximal effective concentration (EC50) was 0.32 µM and the 90% effect concentration (EC90) was determined as 11 µM.
As to `CC(C)(C)C(=O)N(CCCCCCN1C[C@H](O)[C@@H](O)[C@H](O)[C@H]1CO)C1CCCCC1` [Entry 3], in the test on BVDV, the EC50 amounted to 0.2 µM and the EC90 stood at 13 µM.
Take `CC(C)(C)N[S+]([O-])N(CCCCCCN1C[C@H](O)[C@@H](O)[C@H](O)[C@H]1CO)C1CCCCC1` (some centres unmarked) [Entry 19]: in the test with BVDV, the concentration for a half-maximal effect (EC50) was determined as 0.3 µM and it took 25 µM to reach the 90% level (EC90).
`CC(C)(C)S(=O)(=O)N(CCCCCCN1C[C@H](O)[C@@H](O)[C@H](O)[C@H]1CO)C1CCCCC1` [Entry 17]: in the test with BVDV, a half-maximal effect (EC50) was put at 0.31 µM and the EC90 was found to be 50 µM.
The corresponding values for `O=S(=O)(c1ccccc1)N(CCCCCCN1C[C@H](O)[C@@H](O)[C@H](O)[C@H]1CO)C1CCCCC1` [Entry 18] are 0.5 µM and 18 µM.
In the test with BVDV, `CC(C)(C)CC(=O)N(CCCCCCN1C[C@H](O)[C@@H](O)[C@H](O)[C@H]1CO)C1CCCCC1` [Entry 9] registered an EC50 of 0.18 µM and a concentration for an effect of 90% (EC90) of 4 µM.
Turning to `CCCC(=O)O[C@H]1CN2CC[C@H](O)[C@@H]2[C@@H](O)[C@@H]1O` [Cellgosovir], the “concentrations to achieve EC50 values in tissue culture” value in the test with their target viruses is recorded as “near millimolar”.
`CC(C)(C)C(=O)N(CCCCCCN1[C@H](CO)[C@@H](O)[C@H](O)[C@H]1CO)C1CCCCC1` [Entry 14] registered an EC50 with BVDV of 21 µM.
